# From PubChem BioAssay AID792 (PCMD, 2007)
# Results filed as inconclusive are left out. The source made the active and inactive calls. No rule for the calls is given here.
# Target: S. cerevisiae eIF2B mutant, luciferase reporter luminescence
# Assay: eIF2B reporter inhibitors in yeast strains, dose response, S. cerevisiae, mutant, wild-type, luminescence, growth (AID 792)
# [1] = measured here: mutant yeast growth
# [2] = S. cerevisiae wild-type, luminescence
SMILES,IC50,IC50 [1],IC50 [2]
COc1cc(C)nc(N2CCCC(C(=O)Nc3cccc(Cl)c3C)C2)n1 (configuration not stated),> 100 µM (inactive),> 100 µM,–
O=C(Nc1nc(-c2ccc(S(=O)(=O)N3CCCCCC3)cc2)cs1)c1cccs1,> 100 µM (inactive),> 100 µM,–
Cc1cc2n(n1)SC(Nc1ccccc1)N2 (configuration not stated),> 100 µM (inactive),> 100 µM,–
CCOC(=O)c1cc(S(=O)(=O)N2CCN(C(=O)OCC)CC2)cn1C,> 100 µM (inactive),> 100 µM,–
CCOC(=O)c1c(NC(=O)COC)sc2c1CCCC2,> 100 µM (inactive),> 100 µM,–
CCCc1nc(-c2ccccc2O)n(-c2ccccc2)n1,> 100 µM (inactive),> 100 µM,–
O=C(CCNS(=O)(=O)c1ccc2c(c1)CCC(=O)N2)NCc1cccnc1,> 100 µM (inactive),> 100 µM,–
O=C(O)c1ccc(CSc2n[nH]c(-c3ccco3)n2)cc1,> 100 µM (inactive),> 100 µM,–
Cc1cccn2c(=O)c3cc(C(=O)N4c5ccccc5CC4C)n(C)c3nc12 (configuration not stated),> 100 µM (inactive),> 100 µM,–
Cc1nnc(NC2CCCCC2)[nH]c1=O,> 100 µM (inactive),> 100 µM,–
O=c1c2ccccc2nc(CN2CCOCC2)n1-c1ccccc1F,> 100 µM (inactive),> 100 µM,–
CC(=O)Nc1ccc(Oc2cc(C#N)c(C#N)cc2N2CCCCCC2)cc1,> 100 µM (inactive),> 100 µM,–
CC(=O)/C=C(\C)Nc1ccc(-c2cnc(-c3ccccc3)o2)cc1,inactive,> 100 µM,> 100 µM
C=CCSc1nnc2c(n1)OC(c1cccnc1)N(C(C)=O)c1ccccc1-2 (configuration not stated),> 100 µM (inactive),> 100 µM,–
Nc1nc(NCc2ccccc2)nc(-c2ccccc2)n1,> 100 µM (inactive),> 100 µM,–
CN(CCO)c1nc(N)c2c(N)nc3c(c2c1C#N)CC(=O)N3C1CCCC1,> 100 µM (inactive),> 100 µM,–
O=C(CCC1COc2ccccc2O1)Nc1ccc(Cl)cn1 (configuration not stated),> 100 µM (inactive),> 100 µM,–
COc1ccc(Nc2oc(COc3cccc(C)c3)nc2C#N)cc1,> 100 µM (inactive),> 100 µM,–
COc1ccc(C(=O)CSc2nnc(COc3ccccc3)n2Cc2ccco2)cc1,> 100 µM (inactive),> 100 µM,–
Cc1noc(C)c1C(=O)Nc1ccc2c(c1)CCC2,> 100 µM (inactive),> 100 µM,–

SMILES,IC50,IC50 [1],IC50 [2]
O=c1/c(=C/c2ccc(O)cc2)sc2n1CCCN=2,inactive,> 100 µM,2.11 µM
Fc1ccc2c(c1)nnn2C1CCN(Cc2nnnn2C2CCCCC2)CC1,> 100 µM (inactive),> 100 µM,–
Cc1cccc(-c2nnc(SCC#N)n2Cc2ccccc2)c1,> 100 µM (inactive),> 100 µM,–
CCOC(=O)C1CCCN(C(=O)c2cc3c(C)nc4ccccc4c3o2)C1 (configuration not stated),> 100 µM (inactive),> 100 µM,–
Cc1cccc(-n2nnc3cnn(C)c3c2=O)c1,> 100 µM (inactive),> 100 µM,–
COc1ccc(-c2cc3nc(C)cc(N)n3n2)cc1,inactive,> 100 µM,3.87 µM
COC(=O)c1ccccc1NC(=O)CSc1nc(-c2ccco2)cc(C(F)(F)F)n1,> 100 µM (inactive),> 100 µM,–
CCOC(=O)C1CCN(c2ncnc3c2oc2ccccc23)CC1,> 100 µM (inactive),> 100 µM,–
CCn1c(CNc2nc3ccccc3n2C(C)C)nc2ccccc21,> 100 µM (inactive),> 100 µM,–
COc1ccc(Cl)cc1C(=O)N1CCN(c2ccccn2)CC1,> 100 µM (inactive),> 100 µM,–
CCn1c(C)c(/C=N/Nc2nc3ccccc3s2)c2ccccc21,> 100 µM (inactive),> 100 µM,–
CCOC(=O)N1CCN(C(=O)c2ccc(N3CCCC3=O)cc2)CC1,> 100 µM (inactive),> 100 µM,–
CCc1cc(=O)oc2cc3oc(C)c(C)c3cc12,> 100 µM (inactive),> 100 µM,–
CCCC1CC(C)(c2csc(Nc3ccc(OCC)cc3)n2)OC1=O (configuration not stated),> 100 µM (inactive),> 100 µM,–
COc1cccc(-n2c(C)nnc2SCC(=O)Nc2ccccc2N2CCOCC2)c1,> 100 µM (inactive),> 100 µM,–
O=C(Nc1cccnc1)c1cc(-c2ccco2)on1,> 100 µM (inactive),> 100 µM,–
CCOC(=O)COc1ccc(S(=O)(=O)NCc2ccco2)cc1,> 100 µM (inactive),> 100 µM,–
COc1cc(OC)nc(NC(=O)CCl)n1,> 100 µM (inactive),> 100 µM,–
CCN(CC)c1ncnc2sc(C(=O)N3CCN(c4ccccc4)CC3)c(C)c12,> 100 µM (inactive),> 100 µM,–
Cc1ccccc1OCc1nc2c3cnn(C)c3ncn2n1,> 100 µM (inactive),> 100 µM,–

SMILES,IC50,IC50 [1],IC50 [2]
CC(=O)Nc1ccc(OCC(O)CN2CCN(S(=O)(=O)c3ccc(NC(C)=O)cc3)CC2)cc1 (configuration not stated),> 100 µM (inactive),> 100 µM,–
Cc1cc(C(=O)Nc2ccccc2)oc1C,inactive,> 100 µM,84.2 µM
NC(=O)CSc1nnc(-c2ccco2)n1N,> 100 µM (inactive),> 100 µM,–
Cc1ncc(CC(=O)n2cc(C(=O)c3cc(F)ccc3O)cn2)s1,> 100 µM (inactive),> 100 µM,–
CCOc1cc(-c2nc(-c3ccc(C)nc3OCC)no2)cc(OCC)c1OCC,> 100 µM (inactive),> 100 µM,–
CCN(CC)c1ccc(NC(=O)c2cccc(OC)c2)c(C)c1,inactive,> 100 µM,> 100 µM
O=C(CCN1CCN(Cc2ccccc2)CC1)Nc1cccc(Cl)c1,> 100 µM (inactive),> 100 µM,–
CCCCN1C(=O)CN(CCc2ccccc2)C(=O)C1c1ccc(OC)cc1 (configuration not stated),> 100 µM (inactive),> 100 µM,–
O=C(CC(C(=O)N1CCc2ccccc21)n1ccnc1)NCC1CCCO1 (configuration not stated),> 100 µM (inactive),> 100 µM,–
CCn1ncc(Br)c1C(=O)Nc1sc2c(c1C(N)=O)CCC2,> 100 µM (inactive),> 100 µM,–
N#CCN1CCN(CC(=O)Nc2ccc(OCc3ccccc3)cc2)CC1,> 100 µM (inactive),> 100 µM,–
CCOCC(=O)Nc1cccc(NC(C)=O)c1,> 100 µM (inactive),> 100 µM,–
CCC(Sc1nc2n[nH]c(C)c2c(=N)n1-c1ccc(C)c(Cl)c1)C(=O)N1CCOCC1 (configuration not stated),> 100 µM (inactive),> 100 µM,–
CC(C)Cc1nnc(NC(=O)CC(=O)Nc2ccccc2C(=O)O)s1,inactive,> 100 µM,65.4 µM
N#Cc1c(N2CCOCC2)nc(-c2ccco2)c2c1CCCC2,> 100 µM (inactive),> 100 µM,–
COc1ccc(C2(C)NC(=O)N(CC(=O)Nc3ccc4c(c3)OCO4)C2=O)cc1OC (configuration not stated),> 100 µM (inactive),> 100 µM,–
CCN(CC)c1ncnc2sc(C(=O)N3CCN(c4ccc(OC)cc4)CC3)c(C)c12,> 100 µM (inactive),> 100 µM,–
CCOC(=O)c1c(N)nn(C(C)=O)c1-c1ccccc1,> 100 µM (inactive),> 100 µM,–
